Structures are written as SMILES. Values after ≈ are worked out from the molar mass of the structure shown. Like-named read-outs stand apart in the source and are kept apart here.

Consider four compounds from patent US11160764B2, “Drug delivery composition containing silyl polymers” (Medherant Limited, priority 2015, dated 2021).

For data set [1] the following is noted: cited from earlier work.
Data set [2] in a line: Solubility of drugs in the adhesive compositions / patches. On the procedure:
Three different grades of composition were employed in solubility experiments: A, B and C (see below). A is the grade which was used for initial studies and further was used as the standard grade for solubility tests.
A sample of composition is pre-heated to 80° C. in a closed cartridge or inert environment to avoid contact with moisture and approximately 10 ml of the composition is added into a beaker and weighed. A desired quantity of drug, preservative and excipients are then added to the mixture. The mixture is mixed until it has been homogenised and is then cast with the help of a heated Meyer bar onto a release liner. Once cast, the layers of composition are cured at 60° C. in a humid environment during 16 hours.
In all experiments benzyl alcohol (BenzOH) was employed as a co-solvent. BenzOH is widely used in both pharmaceutical and cosmetic formulations as a preservative, and therefore its addition is required to improve the shelf life of patches. […] Additionally, it acts as a solvent for drugs improving their dissolution in the polymer matrix compositions. The total amount of BenzOH in all formulations was in a range of 1-3% w/w.
All compounds in the liquid state were added by volume, which was estimated using their specific densities.

The nature of data set [3]: Drug release analysis: permeation from patch across Pion membrane in Franz cell. The settings on record: patch of the invention, PBS pH 7.4. The protocol: The membrane and patch are then placed in a Franz cell and then a PBS pH 7.4 buffer solution is added. Samples are taken at one hour interval for 8 hours. The amount of drug released is calculated using a validated HPLC/UV-Vis method depending on the drug in question.

On to `COC(=O)c1ccccc1O` [Methyl salicylate], for which the Solubility in water in data set [1] is 690 µg/mL (≈ 4540 µM). Also, the Sol. type result in data set [2] was “Molecular”. For the same compound, the “Solubility in adhesive F15” value in data set [2] (adhesive grade F15) was “✓”. For the same compound, the “Solubility in adhesive F16” value in data set [2] (adhesive grade F16) is recorded as “✓”. For the same compound, the “Solubility in adhesive F17” value in data set [2] (adhesive grade F17) is “✓”. Also, the “Conc., wt %” value in data set [2] (grade A composition) and in data set [2] (grade B composition) was greater than 5 wt % in each case. Further, the “Solubility of analgesic drugs in compositions: A” value (“Solubility … in compositions: A” below) in data set [2] (grade A composition) was “✓”. In data set [2] (grade A composition (Table 5)), this compound showed a Max. mass fraction of 30%. Besides, the “Soluble in A” value in data set [2] (grade A composition (Table 5)) is given as “✓”. Also, the “Solubility of analgesic drugs in compositions: B” value (“Solubility … in compositions: B” for short) in data set [2] (grade B composition) was “✓”. Further, the “Drug solubility compared between all three grades” value in data set [2] (grades A, B and C) was “identical”. For the same compound, the “Solubility in the standard grade (A) composition, in words” value in data set [2] (standard grade (A)) is reported as “readily soluble”. Besides, the Permeated drug amount is listed as 18.25 μg cm^−2 in data set [3] (sample 1 hours), 24.58 μg cm^−2 in data set [3] (sample 2 hours), 59.78 μg cm^−2 in data set [3] (sample 4 hours) and 83.03 μg cm^−2 in data set [3] (sample 6 hours).

As to `CC(C(=O)O)c1ccc(-c2ccccc2)c(F)c1` (stereo not drawn) [Flurbiprofen], the Solubility in water in data set [1] was 25 µg/mL (≈ 102 µM). In addition, in data set [2], the Sol. type entry was “Molecular”. For the same compound, in data set [2] (grade A composition), the “Conc., wt %” value is given as greater than 5 wt % and the “Solubility … in compositions: A” value is given as “✓”. In addition, in data set [2] (grade A composition (Table 5)), the Max. mass fraction came to 15% and the “Soluble in A” value is given as “✓”. In addition, in data set [2] (grade B composition), the “Conc., wt %” value is listed as greater than 5 wt % and the “Solubility … in compositions: B” value was “✓”.

As for `CC(=O)[C@H]1CC[C@H]2[C@@H]3CCC4=CC(=O)CC[C@]4(C)[C@H]3CC[C@]12C` [Progesterone], the Solubility in water in data set [1] was 9 µg/mL (≈ 28.6 µM). In data set [2], the Max. mass fraction was found to be 15%, the Sol. type entry is on record as “Molecular” and the “Soluble in A” value is reported as “✓”.

Turning to `COc1ccc2c(c1)c(CC(=O)O)c(C)n2C(=O)c1ccc(Cl)cc1` [Indomethacin], the Solubility in water in data set [1] was 2 µg/mL (≈ 5.59 µM). In data set [2], the “Conc., wt %” value is recorded as greater than 5 wt %; the Max. mass fraction is 10%; the Sol. type result was “Molecular”; the “Solubility … in compositions: A” value is “✓”. Moreover, in data set [2], the “Solubility … in compositions: B” value is reported as “✓” and the “Soluble in A” value is “✓”.
